Common to all, as to assay: Kinase Selectivity Assay (CEREP, HTRF)
What all share (format): biochemical
(TR-FRET usually uses a lanthanide donor and a delayed reading to cut background.)

One assay addresses T1, p38d kinase (Homo sapiens, UniProt O15264).
T1 sequence (O15264 1-365): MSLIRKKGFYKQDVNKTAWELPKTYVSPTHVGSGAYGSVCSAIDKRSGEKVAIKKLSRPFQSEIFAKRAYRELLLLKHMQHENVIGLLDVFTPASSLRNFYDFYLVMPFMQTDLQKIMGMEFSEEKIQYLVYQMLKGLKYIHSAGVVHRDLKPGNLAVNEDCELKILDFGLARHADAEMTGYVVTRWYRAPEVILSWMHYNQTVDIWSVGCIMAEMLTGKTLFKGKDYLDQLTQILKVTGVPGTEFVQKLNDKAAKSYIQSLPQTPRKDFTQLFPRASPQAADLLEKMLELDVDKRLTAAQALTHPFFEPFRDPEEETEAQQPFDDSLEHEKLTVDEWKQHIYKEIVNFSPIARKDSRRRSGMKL
The following applies: read-out: % Inhibition at 10 μM Concentration, p38delta. The procedure: (§1) kinase, ROCK2, RSK2, Src kinase, Syk, and TRKA. The % Inhibition was determined

The target in another assay is T2, p38g kinase (Homo sapiens, UniProt P53778).
T2 sequence (P53778 1-367): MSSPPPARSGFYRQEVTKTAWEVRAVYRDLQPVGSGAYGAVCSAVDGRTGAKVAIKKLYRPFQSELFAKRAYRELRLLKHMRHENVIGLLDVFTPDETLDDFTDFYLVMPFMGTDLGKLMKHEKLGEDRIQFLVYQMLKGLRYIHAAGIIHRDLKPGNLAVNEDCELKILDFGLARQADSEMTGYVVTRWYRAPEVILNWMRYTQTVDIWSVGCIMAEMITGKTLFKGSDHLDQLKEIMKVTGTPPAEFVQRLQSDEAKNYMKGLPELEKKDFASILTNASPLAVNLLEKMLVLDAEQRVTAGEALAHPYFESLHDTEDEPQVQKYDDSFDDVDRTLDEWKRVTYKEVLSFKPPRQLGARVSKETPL
The settings on record: read-out: % Inhibition at 10 μM Concentration, p38gamma. How it is done: as §1

Another assay deals with T3, CDK2 (cycE) (Homo sapiens, UniProt P24941).
T3 construct: CEREP, France (ran the assays)
The following applies: read-out: % Inhibition at 10 μM Concentration, CDK2 (cycE). How it is done: as §1

For another assay, the target named is T4, Akt1/PKBa (Homo sapiens, UniProt P31749).
T4 construct: CEREP, France (ran the assays)
T4 sequence (P31749 whole entry): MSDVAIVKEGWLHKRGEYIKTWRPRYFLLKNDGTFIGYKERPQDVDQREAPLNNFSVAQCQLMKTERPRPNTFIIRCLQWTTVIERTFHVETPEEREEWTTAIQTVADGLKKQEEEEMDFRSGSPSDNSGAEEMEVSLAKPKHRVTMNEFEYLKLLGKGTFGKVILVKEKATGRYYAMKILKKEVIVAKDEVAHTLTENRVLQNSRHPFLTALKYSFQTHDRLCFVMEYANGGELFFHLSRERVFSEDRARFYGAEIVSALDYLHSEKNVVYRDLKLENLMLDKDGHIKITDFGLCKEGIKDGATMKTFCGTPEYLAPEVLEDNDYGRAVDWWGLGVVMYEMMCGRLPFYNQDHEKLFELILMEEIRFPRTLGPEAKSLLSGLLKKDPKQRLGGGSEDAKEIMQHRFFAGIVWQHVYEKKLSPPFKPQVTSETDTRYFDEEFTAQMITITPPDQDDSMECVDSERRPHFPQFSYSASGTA
The following applies: read-out: % Inhibition at 10 μM Concentration, Akt1/PKBalpha. How it is done: as §1

Another assay has as its target T5, BMX kinase (Etk) (Homo sapiens, UniProt P51813).
T5 construct: CEREP, France (ran the assays)
T5 sequence (P51813 1-675): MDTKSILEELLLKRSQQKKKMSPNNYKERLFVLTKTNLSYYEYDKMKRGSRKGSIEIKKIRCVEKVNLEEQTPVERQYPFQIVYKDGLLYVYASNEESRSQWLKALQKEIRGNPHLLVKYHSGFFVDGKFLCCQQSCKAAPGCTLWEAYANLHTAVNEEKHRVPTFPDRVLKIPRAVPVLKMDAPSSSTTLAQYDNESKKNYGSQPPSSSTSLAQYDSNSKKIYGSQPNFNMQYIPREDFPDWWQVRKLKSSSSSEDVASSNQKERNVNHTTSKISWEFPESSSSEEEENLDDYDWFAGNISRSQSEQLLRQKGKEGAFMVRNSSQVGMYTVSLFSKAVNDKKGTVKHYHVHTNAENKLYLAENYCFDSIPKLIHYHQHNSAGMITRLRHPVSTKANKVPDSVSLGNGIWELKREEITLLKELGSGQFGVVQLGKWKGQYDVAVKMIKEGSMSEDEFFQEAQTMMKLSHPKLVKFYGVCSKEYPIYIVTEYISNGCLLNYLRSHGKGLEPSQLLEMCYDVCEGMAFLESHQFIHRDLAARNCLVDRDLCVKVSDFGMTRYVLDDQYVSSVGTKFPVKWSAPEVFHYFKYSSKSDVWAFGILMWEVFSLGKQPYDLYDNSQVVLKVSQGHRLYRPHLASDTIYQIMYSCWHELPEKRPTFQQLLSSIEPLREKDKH
The following applies: read-out: % Inhibition at 10 μM Concentration, BMX (Etk). The procedure: as §1

The target in another assay is p38a kinase (Homo sapiens, UniProt Q16539). The following applies: read-out: % Inhibition at 10 μM Concentration, p38alpha. The procedure:
as §1

For the next assay, the target named is T6, EphB4 kinase (Homo sapiens, UniProt P54760).
T6 construct: CEREP, France (ran the assays)
T6 sequence (P54760 16-987): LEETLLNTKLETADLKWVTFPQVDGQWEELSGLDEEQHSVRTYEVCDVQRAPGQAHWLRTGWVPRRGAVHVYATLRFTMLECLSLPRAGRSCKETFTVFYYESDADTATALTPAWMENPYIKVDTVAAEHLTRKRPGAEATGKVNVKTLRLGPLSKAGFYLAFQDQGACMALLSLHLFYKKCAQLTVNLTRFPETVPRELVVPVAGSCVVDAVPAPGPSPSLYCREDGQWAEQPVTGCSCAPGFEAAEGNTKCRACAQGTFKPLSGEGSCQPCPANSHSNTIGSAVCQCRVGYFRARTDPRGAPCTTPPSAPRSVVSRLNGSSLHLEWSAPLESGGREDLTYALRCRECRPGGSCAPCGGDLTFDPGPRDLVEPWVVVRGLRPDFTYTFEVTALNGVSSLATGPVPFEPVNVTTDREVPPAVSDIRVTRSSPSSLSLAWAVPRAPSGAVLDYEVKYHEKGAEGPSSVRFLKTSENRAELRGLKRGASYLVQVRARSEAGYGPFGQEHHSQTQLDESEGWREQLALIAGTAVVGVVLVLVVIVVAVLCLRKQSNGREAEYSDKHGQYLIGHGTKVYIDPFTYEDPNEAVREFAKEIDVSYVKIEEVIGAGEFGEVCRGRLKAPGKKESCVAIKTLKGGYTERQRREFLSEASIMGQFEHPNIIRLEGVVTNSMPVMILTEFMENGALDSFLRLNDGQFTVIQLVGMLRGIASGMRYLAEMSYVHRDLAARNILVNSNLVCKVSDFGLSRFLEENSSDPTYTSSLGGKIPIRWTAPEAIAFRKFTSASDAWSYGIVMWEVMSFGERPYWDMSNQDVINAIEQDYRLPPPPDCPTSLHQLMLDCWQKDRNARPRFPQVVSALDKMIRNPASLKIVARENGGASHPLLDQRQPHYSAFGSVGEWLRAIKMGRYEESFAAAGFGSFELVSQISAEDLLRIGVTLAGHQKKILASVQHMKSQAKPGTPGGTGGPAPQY
The following applies: read-out: % Inhibition at 10 μM Concentration, EphB4. The procedure: as §1

For another assay, the target named is T7, FGFR2 kinase (Homo sapiens, UniProt P21802).
T7 construct: CEREP, France (ran the assays)
T7 sequence (P21802 22-821): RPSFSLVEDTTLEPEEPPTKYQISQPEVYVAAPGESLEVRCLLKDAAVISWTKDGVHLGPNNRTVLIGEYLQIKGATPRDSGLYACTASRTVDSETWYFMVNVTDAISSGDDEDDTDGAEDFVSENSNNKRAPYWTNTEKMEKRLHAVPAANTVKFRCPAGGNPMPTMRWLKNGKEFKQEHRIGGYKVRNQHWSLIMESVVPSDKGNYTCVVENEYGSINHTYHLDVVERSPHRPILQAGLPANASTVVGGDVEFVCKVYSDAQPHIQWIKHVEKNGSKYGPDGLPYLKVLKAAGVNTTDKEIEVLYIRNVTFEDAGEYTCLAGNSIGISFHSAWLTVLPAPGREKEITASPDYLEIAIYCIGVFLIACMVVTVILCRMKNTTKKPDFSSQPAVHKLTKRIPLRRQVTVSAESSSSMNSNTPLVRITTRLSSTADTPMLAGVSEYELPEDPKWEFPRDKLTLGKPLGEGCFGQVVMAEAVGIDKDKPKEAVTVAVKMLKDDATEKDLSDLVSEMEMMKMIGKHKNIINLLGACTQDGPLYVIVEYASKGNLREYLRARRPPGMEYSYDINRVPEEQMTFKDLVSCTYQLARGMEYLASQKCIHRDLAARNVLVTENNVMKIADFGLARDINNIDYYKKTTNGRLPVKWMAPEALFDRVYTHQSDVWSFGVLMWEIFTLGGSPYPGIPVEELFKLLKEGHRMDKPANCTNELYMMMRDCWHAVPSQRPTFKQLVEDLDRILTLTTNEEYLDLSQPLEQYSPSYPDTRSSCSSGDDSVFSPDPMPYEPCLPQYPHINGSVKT
The following applies: read-out: % Inhibition at 10 μM Concentration, FGFR2. How it is done:
as §1

Sequence of p38a kinase (Q16539 whole entry): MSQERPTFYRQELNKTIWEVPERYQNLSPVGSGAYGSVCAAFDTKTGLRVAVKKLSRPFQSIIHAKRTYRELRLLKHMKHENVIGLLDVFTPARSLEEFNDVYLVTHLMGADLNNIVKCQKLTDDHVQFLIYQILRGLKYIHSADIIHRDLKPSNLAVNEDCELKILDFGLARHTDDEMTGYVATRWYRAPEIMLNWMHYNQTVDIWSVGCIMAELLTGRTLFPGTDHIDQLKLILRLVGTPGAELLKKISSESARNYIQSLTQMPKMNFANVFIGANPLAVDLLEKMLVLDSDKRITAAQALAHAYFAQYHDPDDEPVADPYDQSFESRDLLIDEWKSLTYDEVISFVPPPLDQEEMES

Regarding `COc1ccc2c(c1)C(=Cc1ccc3c(-c4ccc(N5CCN(C)CC5)nc4)n[nH]c3c1)C(=O)N2` (mixture of isomers) [Example A97, (E and Z)-5-methoxy-3-((3-(6-(4-methylpiperazin-1-yl)pyridin-3-yl)-1H-indazol-6-yl)methylene)indolin-2-one], the inhibition at 10 µM at p38d kinase was 13%; on p38g kinase, 1%; on CDK2 (cycE), 3%; at Akt1/PKBa, -4%; on BMX kinase (Etk), 9%; at p38a kinase, 11%. In addition, the inhibition at 10 µM on EphB4 kinase amounted to 6%; on FGFR2 kinase it was 35%.
Consider `O=C1Nc2ccccc2/C1=C\c1ccc2[nH]nnc2c1` [Example A1, (E)-3-((1H-benzo[d][1,2,3]triazol-5-yl)methylene)indolin-2-one], for which the inhibition at 10 µM on p38d kinase was 0%; on p38g kinase it was 14%; on CDK2 (cycE) it was 10%; at Akt1/PKBa, -3%; at p38a kinase, -8%; at EphB4 kinase, 5%. Moreover, the inhibition at 10 µM at FGFR2 kinase is 68%.
For `O=C1Nc2ccccc2/C1=C\c1ccc2c(/C=C/c3ccccc3Cl)n[nH]c2c1` [Example A60, (E)-3-((3-((E)-2-chlorostyryl)-1H-indazol-6-yl)methylene)indolin-2-one], the inhibition at 10 µM on p38d kinase was 3%; on p38g kinase, 10%; on CDK2 (cycE), 5%; on Akt1/PKBa, -14%; at BMX kinase (Etk) it was 18%; on p38a kinase it was 1%. The inhibition at 10 µM on EphB4 kinase was -14%; on FGFR2 kinase it was 10%.
Turning to `O=C1Nc2ccccc2/C1=C\c1ccc2cn[nH]c2c1` [Example A5, (E)-3-((1H-indazol-6-yl)methylene)indolin-2-one], the inhibition at 10 µM at p38d kinase was -8%; on p38g kinase, 5%; on CDK2 (cycE), 16%; at Akt1/PKBa, -4%; on BMX kinase (Etk), -3%; on p38a kinase, 18%. Further, the inhibition at 10 µM at EphB4 kinase is -5%; on FGFR2 kinase it was 31%.
In the case of `O=C1Nc2ccccc2C1=Cc1ccc2c(/C=C/c3ccccn3)n[nH]c2c1` (mixture of isomers) [Example A41, (E and Z)-3-((3-((E)-2-(pyridin-2-yl)vinyl)-1H-indazol-6-yl)methylene)indolin-2-one], the inhibition at 10 µM at p38d kinase was -5%; on p38g kinase it was 2%; on CDK2 (cycE) it was 8%; at Akt1/PKBa, -3%; at BMX kinase (Etk), 53%; on p38a kinase, 16%. The inhibition at 10 µM on EphB4 kinase worked out at 85%; at FGFR2 kinase it was 97%.

(Values after patent US8765748B2, “Indazolyl, benzimidazolyl, benzotriazolyl substituted indolinone derivatives as kinase inhibitors useful in the treatment of cancer” (University Health Network, priority 2007, dated 2014).)
